Test results from patent US20230193265A1, “CUG REPEAT SEQUENCE BINDING AGENT” (OSAKA UNIVERSITY, priority 2020, published 2023).

Columns and labels:
[1] = system: r(CUG)9; assay: Surface plasmon resonance (SPR) binding to immobilized r(CUG)9 RNA
Protocol: A streptavidin-coated sensor chip (SA chip, GE Healthcare) was washed with HBS-EP^+ buffer (10 mM HEPES, pH 7.4, 0.15 M NaCl, 3 mM EDTA and 0.05% v/v Surfactant P20) for 6 minutes, and then activated with three consecutive 1-min injection of 30 μL of activation buffer (50 mM NaOH and 1 M NaCl).
5′-Biotinylated r(CUG)9 (Thermo Fisher Scientific Inc.) was diluted to 0.1 μM with HEPES buffer (10 mM HEPES and 500 mM NaCl) and flowed onto the sensor chip until immobilized response units (RU) reaching around 400 RU. The amount of r(CUG)9 immobilized on the surface of the sensor chip was at 401 RU.
Surface plasmon resonance was measured using BIAcore T200 SPR system (GE Healthcare).
r(CUG)9 used for the SPR assay has the sequence as shown below.
For single-cycle kinetic (SCK) analysis, the surface of the sensor chip was conditioned by 120 sec exposure of continuous flow of HBS-EP^+ buffer at a flow rate of 30 μL/min at 25° C. Compound JM608 was dissolved in HBS-EP^+ buffer at a concentration of 0.063 μM, 0.125 μM, 0.25 μM, 0.50 μM and 1.0 μM, and the resulting solutions were sequentially injected on the sensor surface for 60 seconds each at a flow rate of 30 μL/min per cycle.
The obtained SPR response curves were analyzed using BIAcore T200 evaluation software (version 2.0).
SPR measurement was performed in the same manner as in Example 1 except that compound JM642 was used in place of compound JM608 and that solutions of compound JM642 at concentrations of 6 nM, 13 nM, 25 nM, 50 nM and 100 nM were sequentially injected.
The resonance unit for the compound at a concentration of 25 nM in Example 1 was calculated from the measured value (1.9 RU) for the compound at 63 nM using the formula: 1.9 RU×(25 nM/63 nM).

[2] = system: Clcn1 (muscle-specific chloride channel gene) Exon 7a splicing; assay: Improvement of Clcn1 splicing abnormality in DM1 mouse model; type: in vivo, homozygous HSA^LR transgenic mice; details: 20 mg/kg/day, daily intraperitoneal administration for five days; rectus femoris (quadriceps)
Protocol: (§1) Gender- and age-matched homozygous HSA^LR transgenic mice of line 20b (FVB inbred background) (Science 2000, 289, 1769-1772) (<3 months old) were treated with JM642 at indicated doses (10 mg/kg/day and 20 mg/kg/day) for five days by daily intraperitoneal administration. After treatments, the rectus femoris (quadriceps) were obtained for splicing analysis. Total RNA extraction from the tissue, cDNA synthesis and polymerase chain reaction (PCR) were carried out according to Ann. Clin. Transl. Neurol. 2016, 3, 42-54. The PCR products were separated by agarose gel electrophoresis, and the gel was stained with GelRed (Biotium). The gel was imaged using a Typhoon laser fluorimager (GE Healthcare) and the gel bands were quantified using ImageQuant (GE Healthcare).
(§2) For normal mice and mice treated in the same manner as above except that JM642 was not administered, total RNA extraction, cDNA synthesis, PCR and electrophoresis of the PCR products were performed in the same manner as above.
Evaluation was performed in the same manner as in Example 3 except that Clcn1 was studied in place of Atp2a1.
Evaluation was performed in the same manner as in Example 4 except that the compound (DDAP) shown above synthesized in accordance with the method described in non-patent literature 3 was used in place of compound JM642.

[3] = system: Atp2a1 (sarcoplasmic reticulum Ca2+/ATPase gene) Exon 22 splicing; assay: Improvement of Atp2a1 splicing abnormality in DM1 mouse model; type: in vivo, homozygous HSA^LR transgenic mice; details: 20 mg/kg/day, daily intraperitoneal administration for five days; rectus femoris (quadriceps)
Protocol: as §1, §2
Evaluation was performed in the same manner as in Example 3 except that the compound (DDAP) shown below synthesized in accordance with the method described in non-patent literature 3 was used in place of compound JM642.

Resonance unit (RU) at concentration of 25 nM ([1]; 25 nM compound, r(CUG)9 immobilized at 401 RU, calculated from measured value at 63 nM: 1.9 RU×(25 nM/63 nM)) | Resonance unit, measured value at 63 nM ([1]; 63 nM compound, r(CUG)9 immobilized at 401 RU) | binding capacity to the CUG repeat sequence ([1]; SPR, FIGS. 1 and 2 and Table 2) | SMILES | skipping rate of Exon 7a [2] | inclusion rate of Exon 22 [3]
0.8 RU | 1.9 RU | observed | NCCCNc1nc(NC(=O)OCCCN)cc2c(-c3ccnc(N4CCNCC4)c3)cccc12 [JM608, 3-aminopropyl (1-((3-aminopropyl)amino)-5-(2-(piperazin-1-yl)pyridin-4-yl)isoquinolin-3-yl)carbamate] | – | –
– | – | – | NCCCNc1nc(NC(=O)OCCCNC(=O)CCNCCC(=O)NCCCOC(=O)Nc2cc3c(-c4ccnc(N5CCNCC5)c4)cccc3c(NCCCN)n2)cc2c(-c3ccnc(N4CCNCC4)c3)cccc12 [JM642, ((3,3′-azanediylbis(propanoyl))bis(azanediyl))bis(propane-3,1-diyl)bis((1-((3-aminopropyl)amino)-5-(2-(piperazin-1-yl)pyridin-4-yl)isoquinolin-3-yl)carbamate)] | 70% | 70%
